Results from US20240132479A1, “THERAPEUTIC COMPOUNDS AND USES THEREOF” (Board of Trustees of Michigan State University, priority 2021, published 2024).
Values after ≈ are worked out from the molar mass of the structure shown.

Key:
[1] = tested on: rifampin resistant (RIF:rpoBS450L) strain (ATCC #35838); format: cell-based, Mycobacterium tuberculosis
[2] = tested on: isoniazid resistant (INH: katGdel) strain (MS015); test: microbe, parasite or virus in culture; format: cell-based; details: Mycobacterium tuberculosis, H37RV, read-out: MIC H37Rv (katG^del)
[3] = tested on: moxifloxacin resistant (MOX: gyrD94K) strain (MOX3); format: cell-based, Mycobacterium tuberculosis

Row | Structure (SMILES) | MIC H37Rv (rpoB^S450L) [1] [mg/L] | MIC [2] [µg/mL] | MIC H37Rv (gyrA^D94K) [3] [mg/L]
1 | Cc1cc2nc(SCC(=O)N(C(C)C)C(C)C)[nH]c2cc1C [Example 2, 2-[(5,6-dimethyl-1H-1,3-benzodiazol-2-yl)sulfanyl]-N,N-bis(propan-2-yl)acetamide] | 0.25 (≈ 0.783 µM) | 0.5 (≈ 1.57 µM) | 0.5 (≈ 1.57 µM)
2 | CC(C)N(C(=O)CCc1nc2cc(Cl)c(Cl)cc2[nH]1)C(C)C [Example 19] | ≤0.125 | ≤ 0.125 | ≤0.125
3 | Cc1cc2nc(CCC(=O)N(C(C)C)C(C)C)[nH]c2cc1C [Example 21A] | 0.25 (≈ 0.829 µM) | ≤ 0.125 | ≤0.125
